Consider two compounds from paper PMC7365463, “Oxfendazole mediates macrofilaricidal efficacy against the filarial nematode Litomosoides sigmodontis in vivo and inhibits Onchocerca spec. motility in vitro” (PLoS Neglected Tropical Diseases, 2020).

Data set [1] deals with Brugia pahangi. Conditions: 100L3 (SC), cats, SC 100-400mg/kg x1, patent phase, necropsy 46-51 days p.t.; ref Denham 1979 (Ref. 4); cited from earlier work.
The test system of the next data set is Breinlia booliati. Also noted: method as in Mak 1981 (Ref. 7). Conditions: 100L3 (SC), rats, SC 3mg/kg 5 cons. days, patent phase, necropsy 4 weeks p.t.; ref Mak 1981 (Ref. 7); cited from earlier work.
For data set [2], the system named is Brugia pahangi. Also noted: method as in de Burbure 1986 (Ref. 9). To be noted: 200L3 (SC), Mastomys, food 56-82mg/kg, 7 days p.i., necropsy 177 days p.t., ref de Burbure 1986 (Ref. 9), cited from earlier work.
A further data set deals with Acanthocheilonema viteae. Also noted: method as in Nogami 1987 (Ref. 13). Conditions: 50L3 (SC), hamster, SC 10mg/kg 5 cons. days, 12 weeks p.i, necropsy 5 weeks p.t.; ref Nogami 1987 (Ref. 13); cited from earlier work.
In data set [3] the test system is Onchocerca volvulus pre-adult L5 worms. Description: O. volvulus pre-adult (L5) worm motility assay. To be noted: read-out: IC50 of motility inhibition. As to the method: Cryopreserved O. volvulus L3 were thawed, washed and co-cultured with normal human PBMC as previously described. […] The L4 larvae were then transferred into a transwell (Sigma #CLS3472), ~10 L4 per transwell within a 24-well plate and over a monolayer comprised of Human Umbilical Vein Endothelial Cells (HUVEC; Lonza Inc., Allendale, NJ) seeded at a density of 1 x 10^4 cells per well. The larvae were cultured for 80 days using L4 complete media: 1:1 NCTC-109: MEM-alpha and EBM-2 (Clonetics EBM-2 Lonza# CC-3156) at a 60:40 ratio. […] Medium was exchanged 3 times a week and fresh HUVEC monolayers were prepared weekly. A week prior to performing the drug screening assay, the L4 day 80 that has molted to pre-adult worms, L5, were transferred from the transwells into a small petri dish containing fresh complete media. 7–10 L5 worms were retrieved from the petri dish and placed in new transwells containing a freshly prepared HUVEC monolayer. […] After 14 days of treatment, the drug containing media was replaced by complete media without drug. Continuing this assay for a further 19 days, the worms were supplied with fresh media every 2–3 days and the weekly use of fresh HUVEC monolayers. […] All drug concentrations were tested in duplicate. […] IC50 values were calculated using Graph Pad Prism v8.3.

The test system of data set [4] is L. sigmodontis microfilariae. Description: L. sigmodontis microfilariae-injected naïve mice. In kind it is in vivo, Litomosoides sigmodontis. Conditions: mice injected with 100,000 microfilariae, BID 2 x 12.5 mg/kg per os for 5 days. As to the method:
To investigate the in vivo efficacy of oxfendazole on microfilariae, microfilariae were isolated from peripheral blood of L. sigmodontis-infected cotton rats according to Chandrashekar et al. (1984) using a sucrose percoll gradient. 100,000 microfilariae were injected into the tail vein of naïve mice as previously described. Microfilariae-injected mice were treated with a commercial formulation of oxfendazole (Dolthene) twice daily with 2 x 12.5 mg/kg per os. As a positive control, additional mice were treated with a single intraperitoneal dose of ivermectin (5 mg/kg) in DMSO/PEG400/H20dest with a ratio of 1:7:2 according to Halliday et al.. Control animals received no treatment.

Data set [5] in a line: Plasma pharmacokinetics in mice (oral and subcutaneous). The class given is in vivo, BALB/c mice. Conditions: for AUC(0-t) / Cmax / Tmax / half-life: female, BALB/c, mouse, plasma. As to the method:
Female BALB/c mice (6 to 9-weeks old) were used to determine the plasma concentrations of oxfendazole. Animals were allocated to groups of three animals per dose, such that the mean weight of animals in each group was similar. All animals had access to a certified rodent diet (Beijing Keao […] Co, Ltd) and water ad libitum. In this study, all animals were fasted 12 h before dosing and returned to food 4 h post dose. Commercially available oxfendazole (Sigma Aldrich and Dolthene, Merial) was administered to animals. […] A commercially available formulation of oxfendazole, Dolthene, was diluted in corn oil and administered by oral gavage. After administration of the drug substances by oral gavage, blood samples were collected from each animal via the saphenous or mandibular veins at 0.25, 0.5, 1, 2, 4, 8, 12 and 24 h post dosing. For administration via the sc route, samples were collected from each animal 1, 3, 6, 9, 12, 18, 24, 36, 48, 72, 96, and 120 h post dosing. All samples were transferred into plastic tubes containing K2-EDTA (0.5 M) as an anti-coagulant and stored on ice until plasma preparation by centrifugation at 5°C (3000 g, 15 min). Analysis was conducted by LC-MS/MS (API 4000). Mobile phases were mixtures of acetonitrile (ACN) and water to which formic acid and 1 mM NH4OAc were added (0.025%, v/v). The ratio ACN/water was 5:95 (v/v) in the mobile phase A and 95:5 (v/v) in the mobile phase B. […] Electrospray positive ionization with selected ion MS/MS monitoring was used for the determination of oxfendazole: m/z 316.0/159.1.

Details of data set [6]: method as in PMID 25701764. Conditions: rat, published data; cited from earlier work.
The subject of a further data set is mammalian tubulin. Also noted: method as in PMID 6712717, PMID 1554382. To be noted: cited from earlier work.
A further data set concerns L. loa microfilariae. On the set-up: method as in PMID 30926803. To be noted: L. loa mouse model; cited from earlier work.
Another data set relates to AMES bacterial assay. To be noted: in vitro; cited from earlier work.
Where [7] appears, read: PO, nominal dose 5 mg/kg (administered 4.8).
The mark [8] stands for this setting: PO, nominal dose 25 mg/kg (administered 26.3).
Setting [9] is: SC, nominal dose 1 mg/kg (administered 1.0).
[10] abbreviates: SC, nominal dose 25 mg/kg (administered 27.5).

pIC50: −log10 of the molar value. Like-named read-outs stand apart in the source and are kept apart here.

As to `COC(=O)Nc1nc2cc(C(=O)c3ccc(F)cc3)ccc2[nH]1` [flubendazole], the “Reduction of worm burden” value in the data set with Brugia pahangi [1] is recorded as 100%; in the data set on Breinlia booliati, 100%; in the data set on Brugia pahangi [2] (7 days ad.lib.), 100%; with Brugia pahangi [2] (14 days ad. lib.), 100%; with Acanthocheilonema viteae, 68%.

Turning to `COC(=O)Nc1nc2ccc([S+]([O-])c3ccccc3)cc2[nH]1` (stereo not drawn) [oxfendazole], the pIC50 is 5.12 in data set [3] (336 h, day 14 (14 days drug exposure)); 7.54 in data set [3] (day 19 of culture (14 days drug, 5 days without drug)); 7.99 in data set [3] (day 33 of culture (14 days drug, 19 days without drug)). In addition, in [4], the “direct microfilaricidal effect in vivo” value is “no direct microfilaricidal effect”. Moreover, the “Cmax oral versus sc” value in [5] (25 mg/kg, higher in the oral treated group) is “about 6 times”. Moreover, the AUC(0-t) in data set [5] (setting [7]) is 14700 ng·h/mL; in data set [5] (setting [8]), 50300 ng·h/mL; in data set [5] (setting [9]), 1280 ng·h/mL; in [5] (setting [10]), 20800 ng·h/mL. The maximum concentration (Cmax) is 2530 ng/mL in data set [5] (setting [7]); 8590 ng/mL in data set [5] (setting [8]); 131 ng/mL in data set [5] (setting [9]); 1450 ng/mL in [5] (setting [10]); 8 µM in data set [5] (oral administration of 5 mg/kg); 27 µM in data set [5] (oral administration of 25 mg/kg). The time of peak concentration (Tmax) in data set [5] (setting [7]) is 1.67 h; in data set [5] (setting [8]) it was 2 h; in data set [5] (setting [9]), 1.67 h; in data set [5] (setting [10]), 2.33 h; in [5] (other: oral and sc, all groups (oral and sc)) it was approximately 2 h. Further, the half-life in data set [5] (PO, nominal dose 5 mg/kg (administered 4.8), read-out: T1/2 (converted)) is 2.87 h; in data set [5] (PO, nominal dose 25 mg/kg (administered 26.3), read-out: T1/2 (converted)) it was 1.87 h; in data set [5] (SC, nominal dose 1 mg/kg (administered 1.0), read-out: T1/2 (converted)), 24.8 h; in data set [5] (SC, nominal dose 25 mg/kg (administered 27.5), read-out: T1/2 (converted)), 76 h; in [5] (other: oral and sc, both routes of administration, read-out: half-life T1/2 during the first 12 h (converted)) it was approximately 2 h. Also, in data set [5] (higher when administered orally), the “AUC0-last oral versus sc” value was determined as 2.4 times. Also, the “terminal half-life sc versus T1/2 by oral route” value in [5] (terminal phase starting 12 h after dosing, longer for sc) is approximately 40 times. Further, in data set [6], the “Bioavailability (F)” value was approximately 35%. For the same compound, the “affinity to mammalian tubulin” value in the data set on mammalian tubulin is reported as “weak affinity”. Moreover, the “microfilaricidal efficacy against L. loa” value in the data set on L. loa microfilariae is recorded as “lacks such a microfilaricidal efficacy”. Moreover, the “toxicity in AMES bacterial assay” value in the data set on AMES bacterial assay is recorded as “did not exhibit toxicity”.
